The results in this text go back to patent US11242351B2, “Tricyclic inhibitors of the BCL6 BTB domain protein-protein interaction and uses thereof” (priority 2017, dated 2022).

Where two headings read alike, the source gives them in different places.

In assay [1] the target is BCL6 BTB domain (biotin-thrombin-BCL6 amino acids 1-129) (Homo sapiens (Human), UniProt P41182). The assay is described as follows: Surface Plasmon Resonance (SPR) assay. Conditions: Biacore T200, single cycle kinetic analysis. Type of assay: binding. Here is the method:
Surface Plasmon Resonance (SPR) Assay
SPR studies were performed using a Biacore™ T200 instrument (GE Health Sciences Inc.). […] The Biacore flow rate was set at 100 μl/min. […] Curve fitting and KD calculations were performed with the Biacore T200 Evaluation software (GE Health Sciences Inc).
(In general: SPR reads the build-up and loss of mass on a sensor chip optically.)

Assay [2] concerns BCL6 reporter construct in SuDHL4-3×BCL6-TK-Luc cells. The experiment in a line: Cell-based luciferase assay (BCL6 reporter). Particulars: 48 h, read-out: Luc IC50. Put shortly:
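SuDHL4 cells stably carrying a 3×BCL6-site TK-promoter firefly luciferase reporter, 15,000 cells/well, dosed over 10 concentrations (top 10 μM) and cultured two days at 37° C, 5% CO2. Luciferase luminescence read after room-temperature equilibration with neolite reagent.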

The next assay relates to Karpas422 cells. The experiment in a line: Tumor cell growth inhibition assay. Type of assay: cell-based. Conditions: Homo sapiens, KARPAS-422, 144 h, read-out: GI Karpas EC50. Put shortly:
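Karpas422 cells were dosed over a 10-point concentration range (top 5 μM) and grown 6 days at 37 °C, 5% CO2, in Alpha-MEM with 10% FBS. Viability was read as ATPlite luminescence.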

Where [3] appears, read: SuDHL4-3×BCL6-TK-Luc cells, two days.
Setting [4] is: Karpas422 cells, six days, ATPlite.

By Kd is commonly meant the equilibrium constant for the complex coming apart. Read a high Kd as lower affinity. The IC50 is the concentration needed to halve the response being measured. The term EC50 denotes the concentration giving half of the maximal effect. In turn, `C[C@H]1CN(CC2CC2)CCN1c1cc(NC(=O)Cn2cc(-c3cc(C(N)=O)c(O)c(F)c3F)c3c(=O)n4c(nc32)CCCC4)c(Cl)c(F)n1` [I-45, (S)-5-(1-(2-((3-chloro-6-(4-(cyclopropyl-methyl)-2-methyl-piperazin-1-yl)-2-fluoropyridin-4-yl)amino)-2-oxoethyl)-4-oxo-1,4,6,7,8,9-hexahydropyrido [1,2-a]pyrrolo[2,3-d]pyrimidin-3-yl)-3,4-difluoro-2-hydroxy-benzamide] came in with a dissociation constant Kd in assay [1] of 31.8 nM. The IC50 in assay [2] was found to be 469 nM. Further, the EC50 with Karpas422 cells turned out to be 1330 nM.

Consider `C[C@H]1CN(CC(CO)CO)CCN1c1cc(NC(=O)Cn2cc(-c3cc(C(N)=O)c(O)c(F)c3F)c3c(=O)n4c(nc32)CCC4)c(Cl)c(F)n1` [I-46, (S)-5-(1-(2-((3-chloro-2-fluoro-6-(4-(3-hydroxy-2-(hydroxymethyl)propyl)-2-methylpiperazin-1-yl)pyridin-4-yl)amino)-2-oxoethyl)-4-oxo-4,6,7,8-tetrahydro-1H-dipyrrolo[1,2-a:2′,3′-d]pyrimidin-3-yl)-3,4-difluoro-2-hydroxybenzamide], for which the equilibrium dissociation constant (Kd) in assay [1] was 3.13 nM. Moreover, the IC50 in assay [2] (setting [3]) worked out at 935 nM. The concentration for a half-maximal effect (EC50) in the assay with Karpas422 cells (setting [4]) turned out to be 487 nM.

`NC(=O)c1cc(-c2cn(CC(=O)Nc3cc(N4CCCC4)nc(F)c3Cl)c3nc4n(c(=O)c23)CCC4)c(F)c(F)c1O` [I-47, 5-(1-(2-((3-chloro-2-fluoro-6-(pyrrolidin-1-yl)pyridin-4-yl)amino)-2-oxoethyl)-4-oxo-4,6,7,8-tetrahydro-1H-dipyrrolo[1,2-a:2′,3′-d]pyrimidin-3-yl)-3,4-difluoro-2-hydroxy-benzamide] yielded a Kd in assay [1] of 23.9 nM. Further, in assay [2] (setting [3]), the IC50 worked out at 166 nM. Further, the EC50 in the assay with Karpas422 cells (setting [4]) stood at 212 nM.

For the molecule `C[C@H]1CN(CC(F)F)CCN1c1cc(NC(=O)Cn2cc(-c3cc(C(N)=O)c(O)c(F)c3F)c3c(=O)n4c(nc32)CCC4)c(Cl)c(F)n1` [I-48, (S)-5-(1-(2-((3-chloro-6-(4-(2,2-difluoroethyl)-2-methylpiperazin-1-yl)-2-fluoropyridin-4-yl)amino)-2-oxoethyl)-4-oxo-4,6,7,8-tetrahydro-1H-dipyrrolo[1,2-a:2′,3′-d]pyrimidin-3-yl)-3,4-difluoro-2-hydroxy-benzamide], the affinity in assay [1], expressed as Kd, was 13.7 nM. Moreover, the concentration for half-maximal inhibition (IC50) in assay [2] (setting [3]) was 96.4 nM. For the same molecule, the concentration giving a half-maximal response (EC50) in the assay with Karpas422 cells (setting [4]) turned out to be 64.6 nM.

For `C[C@H]1CN(C2COC2)CCN1c1cc(NC(=O)Cn2cc(-c3cc(C(N)=O)c(O)c(F)c3F)c3c(=O)n4c(nc32)CCCCC4)c(Cl)c(F)n1` [I-50, (S)-5-(1-(2-((3-chloro-2-fluoro-6-(2-methyl-4-(oxetan-3-yl)piperazin-1-yl)pyridin-4-yl)amino)-2-oxo-ethyl)-4-oxo-4,6,7,8,9,10-hexahydro-1H-pyrrolo [2′,3′:4,5]pyrimido [1,2-a]azepin-3-yl)-3,4-difluoro-2-hydroxybenzamide], binding in assay [1] was put at a Kd of 43 nM. The half-inhibitory concentration (IC50) in assay [2] (setting [3]) was 395 nM. For the same molecule, in the assay on Karpas422 cells (setting [4]), the EC50 is 475 nM.

Molecule `C[C@H]1COCCN1c1cc(NC(=O)Cn2cc(-c3cc(C(N)=O)c(O)c(F)c3F)c3c(=O)n4c(nc32)CCCCC4)c(Cl)c(F)n1` [I-51, (S)-5-(1-(2-((3-chloro-2-fluoro-6-(3-methyl-morpholino)pyridin-4-yl)amino)-2-oxoethyl)-4-oxo-4,6,7,8,9,10-hexahydro-1H-pyrrolo [2′,3′:4,5]pyrimido [1,2-a]azepin-3-yl)-3,4-difluoro-2-hydroxy-benzamide] had a Kd in assay [1] of 89.1 nM. Also, the IC50 in assay [2] (setting [3]) worked out at 3050 nM. Besides, the concentration giving a half-maximal response (EC50) with Karpas422 cells (setting [4]) was 974 nM.

In assay [1], `CCN1CCN(c2cc(NC(=O)Cn3cc(-c4cc(C(N)=O)c(O)c(F)c4F)c4c(=O)n5c(nc43)CCCCC5)c(Cl)c(F)n2)[C@@H](C)C1` [I-52, (S)-5-(1-(2-((3-chloro-6-(4-ethyl-2-methyl-piperazin-1-yl)-2-fluoropyridin-4-yl)amino)-2-oxoethyl)-4-oxo-4,6,7,8,9,10-hexahydro-1H-pyrrolo [2′,3′:4,5]pyrimido [1,2-a]azepin-3-yl)-3,4-difluoro-2-hydroxy-benzamide] registered a Kd of 76.5 nM. For the same molecule, the IC50 in assay [2] (setting [3]) is 820 nM. In the assay with Karpas422 cells (setting [4]), the 50% effective concentration (EC50) is 1670 nM.

The molecule `C[C@H]1CNCCN1c1cc(NC(=O)Cn2cc(-c3cc(C(N)=O)c(O)c(F)c3F)c3c(=O)n4c(nc32)CCC4)c(Cl)c(F)n1` [I-53, (S)-5-(1-(2-((3-chloro-2-fluoro-6-(2-methyl-piperazin-1-yl)pyridin-4-yl)amino)-2-oxo-ethyl)-4-oxo-4,6,7,8-tetrahydro-1H-dipyrrolo [1,2-a:2′,3′-d]pyrimidin-3-yl)-3,4-difluoro-2-hydroxybenzamide] showed a dissociation constant (Kd) in assay [1] of 5.83 nM. Besides, the half-maximal inhibitory concentration (IC50) in assay [2] (setting [3]) worked out at 504 nM. Moreover, the 50% effective concentration (EC50) with Karpas422 cells (setting [4]) was 646 nM.

In assay [1], `C[C@H]1CN(C)C[C@H](C)N1c1cc(NC(=O)Cn2cc(-c3cc(C(N)=O)c(O)c(F)c3F)c3c(=O)n4c(nc32)CCC4)c(Cl)cn1` [I-54, 5-(1-(2-((5-chloro-2-((2S,6S)-2,4,6-trimethylpiperazin-1-yl)pyridin-4-yl)amino)-2-oxoethyl)-4-oxo-4,6,7,8-tetrahydro-1H-dipyrrolo[1,2-a:2′,3′-d]pyrimidin-3-yl)-3,4-difluoro-2-hydroxy-benzamide] returned a dissociation constant (Kd) of 97.6 nM. Moreover, in assay [2], the IC50 came out at 5980 nM. In addition, the EC50 in the assay on Karpas422 cells is 2000 nM.

On to `C[C@H]1CN(C)CCN1c1cc(NC(=O)Cn2cc(-c3cc(F)c(O)c(C(N)=O)c3)c3c(=O)n4c(nc32)CCC4)c(Cl)c(F)n1` [I-55, (S)-5-(1-(2-((3-chloro-6-(2,4-dimethyl-piperazin-1-yl)-2-fluoropyridin-4-yl)amino)-2-oxoethyl)-4-oxo-4,6,7,8-tetrahydro-1H-dipyrrolo [1,2-a:2′,3′-d]pyrimidin-3-yl)-3-fluoro-2-hydroxybenzamide], for which, in assay [1], the dissociation constant Kd turned out to be 1.5 nM. Besides, the IC50 in assay [2] is 13.5 nM. The concentration giving a half-maximal response (EC50) in the assay with Karpas422 cells came to 16.6 nM.

Regarding `CN1C[C@H]2CC[C@@H](C1)N2c1cc(NC(=O)Cn2cc(-c3cc(C(N)=O)c(O)c(F)c3F)c3c(=O)n4c(nc32)CCC4)c(Cl)cn1` [I-56, 5-(1-(2-((5-chloro-2-((1R,5S)-3-methyl-3,8-diazabicyclo[3.2.1]octan-8-yl)pyridin-4-yl)amino)-2-oxoethyl)-4-oxo-4,6,7,8-tetrahydro-1H-dipyrrolo[1,2-a:2′,3′-d]pyrimidin-3-yl)-3,4-difluoro-2-hydroxy-benzamide], the affinity in assay [1], expressed as Kd, was 38.7 nM. In addition, the half-inhibitory concentration (IC50) in assay [2] (setting [3]) worked out at 684 nM. Besides, in the assay on Karpas422 cells (setting [4]), the EC50 came to 586 nM.

Take `C[C@H]1CN(C)CCN1c1cc(NC(=O)Cn2cc(-c3cc(C(N)=O)c(O)c(F)c3F)c3c(=O)n4c(nc32)CC(C)(C)C4)c(Cl)c(F)n1` [I-57, (S)-5-(1-(2-((3-chloro-6-(2,4-dimethyl-piperazin-1-yl)-2-fluoropyridin-4-yl)amino)-2-oxoethyl)-7,7-dimethyl-4-oxo-4,6,7,8-tetrahydro-1H-dipyrrolo[1,2-a:2′,3′-d]pyrimidin-3-yl)-3,4-difluoro-2-hydroxy-benzamide]: the Kd in assay [1] was 11.2 nM. In addition, in assay [2], the IC50 came out at 114 nM. Besides, the half-maximal effective concentration (EC50) in the assay with Karpas422 cells worked out at 62.1 nM.

The molecule `C[C@H]1COCCN1c1cc(NC(=O)Cn2cc(-c3cc(C(N)=O)c(O)c(F)c3F)c3c(=O)n4c(nc32)CC(C)(C)C4)c(Cl)c(F)n1` [I-58, (S)-5-(1-(2-((3-chloro-2-fluoro-6-(3-methyl-morpholino)pyridin-4-yl)amino)-2-oxoethyl)-7,7-dimethyl-4-oxo-4,6,7,8-tetrahydro-1H-dipyrrolo[1,2-a:2′,3′-d]pyrimidin-3-yl)-3,4-difluoro-2-hydroxy-benzamide] showed an equilibrium dissociation constant (Kd) in assay [1] of 28.7 nM. The IC50 in assay [2] (setting [3]) worked out at 190 nM. Also, the EC50 with Karpas422 cells (setting [4]) stood at 96.2 nM.

With `C[C@H]1COCCN1c1cc(NC(=O)Cn2cc(-c3cc(Cl)c(O)c(C(N)=O)c3)c3c(=O)n4c(nc32)CC(C)(C)C4)c(Cl)c(F)n1` [I-59, (S)-3-chloro-5-(1-(2-((3-chloro-2-fluoro-6-(3-methylmorpho-lino)pyridin-4-yl)amino)-2-oxoethyl)-7,7-dimethyl-4-oxo-4,6,7,8-tetrahydro-1H-dipyrrolo[1,2-a:2′,3′-d]pyrimidin-3-yl)-2-hydroxybenzamide], in assay [1], the Kd amounted to 23.4 nM. Further, the IC50 in assay [2] (setting [3]) was found to be 190 nM. In addition, in the assay on Karpas422 cells (setting [4]), the 50% effective concentration (EC50) worked out at 48.8 nM.

Take `C[C@H]1CN(C)CCN1c1cc(NC(=O)Cn2cc(-c3cc(Cl)c(O)c(C(N)=O)c3)c3c(=O)n4c(nc32)CC(C)(C)C4)c(Cl)c(F)n1` [I-60, (S)-3-chloro-5-(1-(2-((3-chloro-6-(2,4-dimethylpiperazin-1-yl)-2-fluoropyridin-4-yl)amino)-2-oxoethyl)-7,7-dimethyl-4-oxo-4,6,7,8-tetrahydro-1H-dipyrrolo[1,2-a:2′,3′-d]pyrimidin-3-yl)-2-hydroxybenzamide]: binding in assay [1] was put at a Kd of 13.4 nM. In assay [2], the concentration for half-maximal inhibition (IC50) was 186 nM. In addition, in the assay with Karpas422 cells, the EC50 was 97.2 nM.

As for `C[C@H]1CN(C)CCN1c1cc(NC(=O)Cn2cc(-c3cc(Cl)c(O)c(C(N)=O)c3)c3c(=O)n4c(nc32)CCC4)c(Cl)c(F)n1` [I-61, (S)-3-chloro-5-(1-(2-((3-chloro-6-(2,4-dimethylpiperazin-1-yl)-2-fluoropyridin-4-yl)amino)-2-oxoethyl)-4-oxo-4,6,7,8-tetrahydro-1H-dipyrrolo[1,2-a:2′,3′-d]pyrimidin-3-yl)-2-hydroxybenzamide], the Kd in assay [1] came out at 3.71 nM. In addition, the half-inhibitory concentration (IC50) in assay [2] (setting [3]) was determined as 41.7 nM. The concentration giving a half-maximal response (EC50) in the assay with Karpas422 cells (setting [4]) was 22.2 nM.
